Laboratory results as given in US9434743B2, “Indazole derivatives” (TAKEDA PHARMACEUTICAL COMPANY LIMITED, priority 2012, dated 2016).

Key:
[1] = molecular target: T1, human MetAP2 enzyme (Homo sapiens, UniProt P50579); assay: MetAP2 enzyme assay, enzyme complexed with manganese ions; conditions: MetAP2 Mn pIC50, MetAP2 enzyme complexed with manganese ions; Met-AMC substrate at Km
[2] = molecular target: T1, human MetAP2 enzyme; assay: MetAP2 enzyme assay, enzyme complexed with cobalt ions; conditions: MetAP2 Co pIC50, MetAP2 enzyme complexed with cobalt ions; Met-AMC substrate at Km
Description: DNA encoding the full-length sequence of human MetAP2 enzyme is amplified by PCR and cloned into a pFastBac expression vector (Invitrogen). Recombinant baculovirus incorporating the MetAP2 construct is generated by transposition using the Bac-to-Bac system (Invitrogen). The expression of recombinant protein is carried out by infection of Spodoptera frugiperda Sf9 cells (Invitrogen) in 5 L Wave Bioreactors (Wave Biotech). Recombinant protein is isolated from cellular extracts by binding to an SP Hitrap Fast Flow or SP Sepharose (Sigma) column, and the protein is eluted using a NaCl gradient. Partially purified extracts of MetAP2 are further purified by an AKTA FPLC over a Superdex-200 column (GE). The purity of MetAP2 protein is determined on denaturing SDS-PAGE gel.
The results for each well are expressed as percent inhibition and calculated using the equation:

T1 sequence (P50579 whole entry): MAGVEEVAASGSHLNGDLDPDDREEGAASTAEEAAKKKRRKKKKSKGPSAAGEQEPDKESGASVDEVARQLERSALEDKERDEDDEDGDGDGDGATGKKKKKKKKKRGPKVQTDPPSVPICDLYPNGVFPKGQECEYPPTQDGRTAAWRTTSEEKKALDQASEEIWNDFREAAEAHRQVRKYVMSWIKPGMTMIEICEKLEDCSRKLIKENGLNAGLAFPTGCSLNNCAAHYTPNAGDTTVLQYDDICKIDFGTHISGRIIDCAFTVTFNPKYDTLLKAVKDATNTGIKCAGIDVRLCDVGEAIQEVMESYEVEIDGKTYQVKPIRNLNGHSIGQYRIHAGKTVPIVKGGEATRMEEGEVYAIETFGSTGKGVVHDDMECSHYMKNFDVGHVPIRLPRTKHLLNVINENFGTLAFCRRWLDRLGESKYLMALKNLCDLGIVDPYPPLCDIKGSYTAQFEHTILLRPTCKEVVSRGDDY

SMILES | IC50 [1] | IC50 [2]
NS(=O)(=O)c1ccc(-c2cc(C(F)(F)F)cc3[nH]ncc23)c(F)c1 [Example 342, 3-fluoro-4-(6-(trifluoromethyl)-1H-indazol-4-yl)benzenesulfonamide] | 6.31 nM | 39.8 nM
COc1ccncc1-c1cc(C(F)(F)F)cc2[nH]ncc12 [Example 30, 4-(4-methoxypyridin-3-yl)-6-(trifluoromethyl)-1H-indazole] | 25.1 nM | 79.4 nM
CN(C)C(=O)c1c[nH]c(=O)c(-c2cc(C(F)(F)F)cc3[nH]ncc23)c1 [Example 334, N,N-dimethyl-6-oxo-5-(6-(trifluoromethyl)-1H-indazol-4-yl)-1,6-dihydropyridine-3-carboxamide] | 20 nM | 794 nM
Cn1cc(-c2cc(C(F)(F)F)cc3[nH]ncc23)c(=O)n(CC(N)=O)c1=O [Example 300, 2-(3-methyl-2,6-dioxo-5-(6-(trifluoromethyl)-1H-indazol-4-yl)-2,3-dihydropyrimidin-1(6H)-yl)acetamide] | 12.6 nM | 398 nM
CN1CCOc2cc(-c3cc(C(F)(F)F)cc4[nH]ncc34)cnc21 [Example 122, 4-methyl-7-(6-(trifluoromethyl)-1H-indazol-4-yl)-3,4-dihydro-2H-pyrido[3,2-b][1,4]oxazine] | 12.6 nM | 39.8 nM
NS(=O)(=O)c1ccc(-c2cc(C(F)(F)F)cc3[nH]ncc23)cc1Cl [Example 343, 2-chloro-4-(6-(trifluoromethyl)-1H-indazol-4-yl)benzenesulfonamide] | 6.31 nM | 100 nM
CNC(=O)Cn1nc(C)c(-c2cc(C(F)(F)F)cc3[nH]ncc23)c1C [Example 367, 2-(3,5-dimethyl-4-(6-(trifluoromethyl)-1H-indazol-4-yl)-1H-pyrazol-1-yl)-N-methylacetamide] | 15.8 nM | 50.1 nM
COc1ccc(C(=O)N(C)C)cc1-c1cc(C(F)(F)F)cc2[nH]ncc12 [Example 272, 4-methoxy-N,N-dimethyl-3-(6-(trifluoromethyl)-1H-indazol-4-yl)benzamide] | 10 nM | 39.8 nM
CCN1C(=O)C(=O)c2cc(C)cc(-c3cc(C(F)(F)F)cc4[nH]ncc34)c21 [Example 199, 1-ethyl-5-methyl-7-(6-(trifluoromethyl)-1H-indazol-4-yl)indoline-2,3-dione] | 158 nM | 501 nM
COc1ccc(N)c(-c2cc(C(F)(F)F)cc3[nH]ncc23)n1 [Example 184, 6-methoxy-2-(6-(trifluoromethyl)-1H-indazol-4-yl)pyridin-3-amine] | 20 nM | 501 nM
COc1ccc(C(=O)N2CCN(C)CC2)cc1-c1cc(C(F)(F)F)cc2[nH]ncc12 [Example 266, (4-methoxy-3-(6-(trifluoromethyl)-1H-indazol-4-yl)phenyl)(4-methylpiperazin-1-yl)methanone] | 12.6 nM | 63.1 nM
Cc1ccc(C(=O)NCCO)cc1-c1cc(C(F)(F)F)cc2[nH]ncc12 [Example 368, N-(2-hydroxyethyl)-4-methyl-3-(6-(trifluoromethyl)-1H-indazol-4-yl)benzamide] | 12.6 nM | 31.6 nM
FC(F)(F)c1cc(-c2c[nH]c3nccnc23)c2cn[nH]c2c1 [Example 157, 7-(6-(trifluoromethyl)-1H-indazol-4-yl)-5H-pyrrolo[2,3-b]pyrazine] | 12.6 nM | 251 nM
O=C(Cn1cncn1)NCc1ccccc1-c1cc(C(F)(F)F)cc2[nH]ncc12 [Example 202, 2-(1H-1,2,4-triazol-1-yl)-N-(2-(6-(trifluoromethyl)-1H-indazol-4-yl)benzyl)acetamide] | 25.1 nM | 501 nM
Cn1cc(C(=O)NCC#N)cc(-c2cc(C(F)(F)F)cc3[nH]ncc23)c1=O [Example 354, N-(cyanomethyl)-1-methyl-6-oxo-5-(6-(trifluoromethyl)-1H-indazol-4-yl)-1,6-dihydropyridine-3-carboxamide] | 6.31 nM | 316 nM
FC(F)(F)c1cc(-c2cccnc2OCc2ccccc2)c2cn[nH]c2c1 [Example 99, 4-(2-(benzyloxy)pyridin-3-yl)-6-(trifluoromethyl)-1H-indazole] | 39.8 nM | 631 nM
NC(=O)c1ccccc1-c1cc(C(F)(F)F)cc2[nH]ncc12 [Example 10, 2-(6-(trifluoromethyl)-1H-indazol-4-yl)benzamide] | 31.6 nM | 1260 nM
COc1ccc(C(=O)N2CC(O)C2)cc1-c1cc(C(F)(F)F)cc2[nH]ncc12 [Example 328, (3-hydroxyazetidin-1-yl)(4-methoxy-3-(6-(trifluoromethyl)-1H-indazol-4-yl)phenyl)methanone] | 12.6 nM | 12.6 nM
O=S(=O)(NCCO)c1ccc(-c2cc(C(F)(F)F)cc3[nH]ncc23)cc1 [Example 224, N-(2-hydroxyethyl)-4-(6-(trifluoromethyl)-1H-indazol-4-yl)benzenesulfonamide] | 2.51 nM | 39.8 nM
FC(F)(F)c1cc(-c2cc[nH]n2)c2cn[nH]c2c1 [Example 13, 4-(1H-pyrazol-3-yl)-6-(trifluoromethyl)-1H-indazole] | 10 nM | 398 nM

SMILES | IC50 [1] | IC50 [2]
NC(=O)Cc1cccc(-c2cc(C(F)(F)F)cc3[nH]ncc23)c1 [Example 38, 2-(3-(6-(trifluoromethyl)-1H-indazol-4-yl)phenyl)acetamide] | 10 nM | 50.1 nM
COc1nccc(-c2cc(C(F)(F)F)cc3[nH]ncc23)c1Cl [Example 124, 4-(3-chloro-2-methoxypyridin-4-yl)-6-(trifluoromethyl)-1H-indazole] | 15.8 nM | 63.1 nM
CS(=O)(=O)c1cccc(-c2cc(C(F)(F)F)cc3[nH]ncc23)c1 [Example 103, 4-(3-(methylsulfonyl)phenyl)-6-(trifluoromethyl)-1H-indazole] | 6.31 nM | 50.1 nM
NS(=O)(=O)c1ccc(-c2cc(C(F)(F)F)cc3[nH]ncc23)cn1 [Example 345, 5-(6-(trifluoromethyl)-1H-indazol-4-yl)pyridine-2-sulfonamide] | 5.01 nM | 100 nM
FC(F)(F)c1cc(-c2ncn3ccccc23)c2cn[nH]c2c1 [Example 154, 4-(imidazo[1,5-a]pyridin-1-yl)-6-(trifluoromethyl)-1H-indazole] | 15.8 nM | 100 nM
Cc1nn2c(=O)[nH]ncc2c1-c1cc(C(F)(F)F)cc2[nH]ncc12 [Example 222, 2-methyl-3-(6-(trifluoromethyl)-1H-indazol-4-yl)pyrazolo[1,5-d][1,2,4]triazin-7(6H)-one] | 15.8 nM | 251 nM
COc1cncc(-c2cc(C(F)(F)F)cc3[nH]ncc23)c1 [Example 42, 4-(5-methoxypyridin-3-yl)-6-(trifluoromethyl)-1H-indazole] | 6.31 nM | 63.1 nM
Cc1cc(=O)n(CC#N)cc1-c1cc(C(F)(F)F)cc2[nH]ncc12 [Example 408, 2-(4-methyl-2-oxo-5-(6-(trifluoromethyl)-1H-indazol-4-yl)pyridin-1(2H)-yl)acetonitrile] | 3.98 nM | 79.4 nM
C[C@@H](O)CNc1ncc(-c2cc(C(F)(F)F)cc3[nH]ncc23)cn1 [Example 207, (R)-1-(5-(6-(trifluoromethyl)-1H-indazol-4-yl)pyrimidin-2-ylamino)propan-2-ol] | 7.94 nM | 79.4 nM
COCC(=O)Nc1ccc(-c2cc(C(F)(F)F)cc3[nH]ncc23)c(C)n1 [Example 258, 2-methoxy-N-(6-methyl-5-(6-(trifluoromethyl)-1H-indazol-4-yl)pyridin-2-yl)acetamide] | 7.94 nM | 25.1 nM
N#Cc1ccccc1-c1cc(C(F)(F)F)cc2[nH]ncc12 [Example 52, 2-(6-(trifluoromethyl)-1H-indazol-4-yl)benzonitrile] | 12.6 nM | 126 nM
Cc1nc(N)nc(C)c1-c1cc(C(F)(F)F)cc2[nH]ncc12 [Example 190, 4,6-dimethyl-5-(6-(trifluoromethyl)-1H-indazol-4-yl)pyrimidin-2-amine] | 39.8 nM | 200 nM
COc1cc(C(N)=O)ccc1-c1cc(C(F)(F)F)cc2[nH]ncc12 [Example 306, 3-methoxy-4-(6-(trifluoromethyl)-1H-indazol-4-yl)benzamide] | 6.31 nM | 15.8 nM
N#CCc1cccc(-c2cc(C(F)(F)F)cc3[nH]ncc23)c1 [Example 90, 2-(3-(6-(trifluoromethyl)-1H-indazol-4-yl)phenyl)acetonitrile] | 3.16 nM | 31.6 nM
CNC(=O)c1ccc(-c2cc(C(F)(F)F)cc3[nH]ncc23)cc1F [Example 92, 2-fluoro-N-methyl-4-(6-(trifluoromethyl)-1H-indazol-4-yl)benzamide] | 3.98 nM | 50.1 nM
O=C(NCCO)c1cc(-c2cc(C(F)(F)F)cc3[nH]ncc23)ccn1 [Example 308, N-(2-hydroxyethyl)-4-(6-(trifluoromethyl)-1H-indazol-4-yl)picolinamide] | 6.31 nM | 79.4 nM
N#Cc1ncc(-c2cc(C(F)(F)F)cc3[nH]ncc23)cn1 [Example 198, 5-(6-(trifluoromethyl)-1H-indazol-4-yl)pyrimidine-2-carbonitrile] | 12.6 nM | 631 nM
Cc1nn(C(F)F)c(C)c1-c1cc(C(F)(F)F)cc2[nH]ncc12 [Example 348, 4-(1-(difluoromethyl)-3,5-dimethyl-1H-pyrazol-4-yl)-6-(trifluoromethyl)-1H-indazole] | 12.6 nM | 79.4 nM
Cc1cc(C(=O)N2CC(O)C2)ccc1-c1cc(C(F)(F)F)cc2[nH]ncc12 [Example 361, (3-hydroxyazetidin-1-yl)(3-methyl-4-(6-(trifluoromethyl)-1H-indazol-4-yl)phenyl)methanone] | 10 nM | 15.8 nM
